Experimental data reported in ChEMBL document CHEMBL1201862, “PubChem BioAssay data set” (2004).
One block for each compound: values may come before it. Activity calls are given as the source filed them.

What was measured:
[1] = target: T1, Short transient receptor potential channel 4 (Mus musculus, UniProt Q9QUQ5); assay: mouse TRPC4 channel activators, dose response, cell-based, HEK293 TRPC4/mu-opioid, Fluo-4 calcium (AID 434937); type: functional
T1 sequence (Q9QUQ5 whole entry): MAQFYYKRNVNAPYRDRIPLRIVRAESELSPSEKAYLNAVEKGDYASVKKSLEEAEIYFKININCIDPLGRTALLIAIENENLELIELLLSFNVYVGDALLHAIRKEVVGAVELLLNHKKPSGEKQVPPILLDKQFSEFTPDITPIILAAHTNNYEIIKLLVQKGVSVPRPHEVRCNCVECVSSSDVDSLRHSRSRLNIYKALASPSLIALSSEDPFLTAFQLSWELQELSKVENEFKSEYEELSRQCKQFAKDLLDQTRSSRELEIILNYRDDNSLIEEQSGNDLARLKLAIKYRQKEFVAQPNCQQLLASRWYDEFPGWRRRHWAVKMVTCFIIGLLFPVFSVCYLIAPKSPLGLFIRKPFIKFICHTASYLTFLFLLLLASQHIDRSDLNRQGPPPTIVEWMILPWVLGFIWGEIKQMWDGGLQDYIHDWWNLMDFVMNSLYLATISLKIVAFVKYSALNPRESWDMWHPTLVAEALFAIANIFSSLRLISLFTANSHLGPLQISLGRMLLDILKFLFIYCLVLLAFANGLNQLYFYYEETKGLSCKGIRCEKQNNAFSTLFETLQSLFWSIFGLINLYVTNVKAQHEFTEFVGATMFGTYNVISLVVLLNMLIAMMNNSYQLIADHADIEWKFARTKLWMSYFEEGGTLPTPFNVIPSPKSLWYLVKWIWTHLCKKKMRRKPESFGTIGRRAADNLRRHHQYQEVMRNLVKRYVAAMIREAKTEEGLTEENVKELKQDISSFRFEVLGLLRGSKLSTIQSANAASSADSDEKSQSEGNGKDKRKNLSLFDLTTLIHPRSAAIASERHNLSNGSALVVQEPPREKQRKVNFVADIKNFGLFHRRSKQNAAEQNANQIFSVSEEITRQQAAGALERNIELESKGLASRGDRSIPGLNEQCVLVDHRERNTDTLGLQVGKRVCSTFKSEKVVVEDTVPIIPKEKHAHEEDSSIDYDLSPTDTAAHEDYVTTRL

Kallikrein-7 = Kallikrein-7 (Homo sapiens, UniProt P49862); assay: Fluorescence Intensity-based biochemical primary high throughput dose response assay to identify activators of kallikrein-7 (K7) zymogen.
[2] = target: T2, Corticotropin-releasing factor receptor 2/Corticotropin-releasing factor-binding protein (Homo sapiens, UniProt P24387+Q13324); assay: Dose Response confirmation of uHTS hits for small molecule antagonists of the CRF-binding protein and CRF-R2 receptor complex.; type: functional; conditions: read-out: IC50_Mean
T2 sequence (Q13324 whole entry): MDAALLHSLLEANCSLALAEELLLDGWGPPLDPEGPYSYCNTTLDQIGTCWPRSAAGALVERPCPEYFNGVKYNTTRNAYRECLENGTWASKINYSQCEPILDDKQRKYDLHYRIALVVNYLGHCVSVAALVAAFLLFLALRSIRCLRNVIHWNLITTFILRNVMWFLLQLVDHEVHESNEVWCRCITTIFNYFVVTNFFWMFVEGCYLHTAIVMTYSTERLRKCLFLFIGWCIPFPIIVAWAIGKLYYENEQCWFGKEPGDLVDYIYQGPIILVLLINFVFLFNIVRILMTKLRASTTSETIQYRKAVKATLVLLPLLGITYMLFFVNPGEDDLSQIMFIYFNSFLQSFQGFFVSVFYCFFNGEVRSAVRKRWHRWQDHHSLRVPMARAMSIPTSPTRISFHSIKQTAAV
T2 sequence (P24387 whole entry): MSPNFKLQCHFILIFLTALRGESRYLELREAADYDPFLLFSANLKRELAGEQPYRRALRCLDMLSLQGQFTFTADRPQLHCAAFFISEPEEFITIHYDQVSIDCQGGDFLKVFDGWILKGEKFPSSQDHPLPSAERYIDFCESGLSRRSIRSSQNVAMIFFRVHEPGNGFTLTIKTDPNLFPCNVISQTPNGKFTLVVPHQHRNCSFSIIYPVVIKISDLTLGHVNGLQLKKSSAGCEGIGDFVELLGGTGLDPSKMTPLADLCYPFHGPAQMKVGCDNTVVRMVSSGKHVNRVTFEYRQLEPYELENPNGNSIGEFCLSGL

[3] = target: T2, Corticotropin-releasing factor receptor 2/Corticotropin-releasing factor-binding protein; assay: activators of CRF receptor 2 with binding protein – uHTS hits, confirmation (AID 602473); type: functional; conditions: read-out: EC50_Mean
[4] = target: T3, Polyadenylate-binding protein 1 (Homo sapiens, UniProt P11940); assay: PABP1 MLLE–PAM2 interaction inhibitors, dose response, miRNA deadenylation inhibitor project, biochemical, fluorescence polarization, Cy5-PAM2 peptide, secondary (AID 602260); type: functional; conditions: read-out: IC50_Mean
[5] = target: T3, Polyadenylate-binding protein 1; assay: PABP1 MLLE–PAM2 binding inhibitor potency, dose response, biochemical, fluorescence polarization, FITC-PAM2 peptide (AID 602259); type: functional; conditions: read-out: IC50_Mean
[6] = test system: Streptococcus sp. 'group A'; assay: growth inhibition of control SK(-) GAS strain, dose response, counter-screen for streptokinase expression inhibitor project, luminescence, kanamycin, BacTiterGlo, confirmation (AID 1900); type: functional, organism-based
Streptococcus = assay: Group A Streptococcus viability loss, dose response, counter-screen for streptokinase expression inhibitor project, luminescence, BacTiterGlo (AID 1915); type: functional, organism-based;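 note: potency for reduction of bacterial viability or growth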
[7] = target: Voltage-dependent T-type calcium channel subunit alpha-1H (Homo sapiens, UniProt O95180); type: functional;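 note: channel activity triggered by adding a high calcium stimulation buffer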
[8] = Shn3 3'UTR reporter inhibitors, dose response, cell-based, Clone20 osteoblasts, firefly luciferase, cherry-picked (AID 624132); type: functional;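 note: firefly luciferase luminescence from reporter carrying the Shn3 3'UTR in osteoblasts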
[9] = HepG2 cell cytotoxicity, dose response, cytotoxicity control for Shn3 inhibitor project, CellTiter-Glo, cherry-picked (AID 624134); type: functional, cell-based
[10] = control 3'UTR Renilla luciferase suppression, dose response, counter-screen for Shn3 inhibitor project, cell-based, Clone20-Shn3RL, cherry-picked (AID 624133); type: functional
Paired box protein Pax-8 = Paired box protein Pax-8 (Homo sapiens, UniProt Q06710); assay: inhibitors of PAX8-driven TPO luciferase reporter, dose response, RMG-I cells, cherry-pick (AID 687027); type: functional, cell-based;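 note: luciferase reporter driven by Pax8 target thyroperoxidase promoter measured by SteadyGlo luminescence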
[11] = NIH:OVCAR-3 ovarian cancer cell cytotoxicity, dose response, PAX8 inhibitor project, plate reader, dry powder samples (AID 743044); type: functional, cell-based
[12] = cytotoxicity in OVCAR8 ovarian cancer cells, dose response, PAX8 project, cell-based, plate reader, dry powder samples (AID 743197); type: functional; conditions: OVCAR-8
Cytochrome P450 3A4 = Cytochrome P450 3A4 (Homo sapiens, UniProt P08684); conditions: Potency;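 note: confirmatory qHTS run detecting inhibitors and substrates of CYP3A4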
Sequence of Cytochrome P450 3A4 (P08684 whole entry): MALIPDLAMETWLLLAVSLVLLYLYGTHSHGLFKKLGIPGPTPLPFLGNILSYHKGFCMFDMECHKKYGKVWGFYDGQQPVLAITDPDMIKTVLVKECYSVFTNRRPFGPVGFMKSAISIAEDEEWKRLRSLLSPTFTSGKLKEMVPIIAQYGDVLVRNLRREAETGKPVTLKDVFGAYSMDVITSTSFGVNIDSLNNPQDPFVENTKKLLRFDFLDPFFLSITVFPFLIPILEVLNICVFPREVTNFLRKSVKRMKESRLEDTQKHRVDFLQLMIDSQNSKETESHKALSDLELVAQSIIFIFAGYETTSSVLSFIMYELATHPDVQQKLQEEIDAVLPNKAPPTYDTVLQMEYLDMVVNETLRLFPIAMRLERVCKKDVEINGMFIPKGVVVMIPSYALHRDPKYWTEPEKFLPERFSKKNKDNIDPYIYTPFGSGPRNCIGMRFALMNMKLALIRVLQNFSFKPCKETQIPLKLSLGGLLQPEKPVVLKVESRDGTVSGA

Sequence of Kallikrein-7 (P49862 whole entry): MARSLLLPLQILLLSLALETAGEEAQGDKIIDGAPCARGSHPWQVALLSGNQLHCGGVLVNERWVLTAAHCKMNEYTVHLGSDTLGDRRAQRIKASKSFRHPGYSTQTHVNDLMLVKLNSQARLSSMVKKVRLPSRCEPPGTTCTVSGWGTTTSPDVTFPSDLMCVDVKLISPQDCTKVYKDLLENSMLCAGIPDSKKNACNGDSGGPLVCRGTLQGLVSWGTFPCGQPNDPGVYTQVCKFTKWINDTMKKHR
T3 sequence (P11940 whole entry): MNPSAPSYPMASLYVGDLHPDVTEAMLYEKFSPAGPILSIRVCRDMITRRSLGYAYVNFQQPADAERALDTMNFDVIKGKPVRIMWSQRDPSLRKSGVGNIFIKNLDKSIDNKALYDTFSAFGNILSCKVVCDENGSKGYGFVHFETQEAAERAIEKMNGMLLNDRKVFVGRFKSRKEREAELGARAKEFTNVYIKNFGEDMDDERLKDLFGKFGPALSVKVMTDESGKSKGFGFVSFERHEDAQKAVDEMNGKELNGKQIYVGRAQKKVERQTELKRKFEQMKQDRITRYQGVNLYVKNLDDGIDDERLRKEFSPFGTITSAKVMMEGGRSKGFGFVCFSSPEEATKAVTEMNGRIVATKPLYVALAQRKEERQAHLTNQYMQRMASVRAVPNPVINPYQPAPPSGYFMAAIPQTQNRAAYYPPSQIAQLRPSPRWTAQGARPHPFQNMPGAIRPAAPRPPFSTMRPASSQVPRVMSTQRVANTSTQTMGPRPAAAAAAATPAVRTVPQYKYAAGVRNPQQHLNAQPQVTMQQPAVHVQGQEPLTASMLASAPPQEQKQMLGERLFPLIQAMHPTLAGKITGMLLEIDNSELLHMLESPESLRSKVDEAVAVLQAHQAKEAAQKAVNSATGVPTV
Sequence of Voltage-dependent T-type calcium channel subunit alpha-1H (O95180 whole entry): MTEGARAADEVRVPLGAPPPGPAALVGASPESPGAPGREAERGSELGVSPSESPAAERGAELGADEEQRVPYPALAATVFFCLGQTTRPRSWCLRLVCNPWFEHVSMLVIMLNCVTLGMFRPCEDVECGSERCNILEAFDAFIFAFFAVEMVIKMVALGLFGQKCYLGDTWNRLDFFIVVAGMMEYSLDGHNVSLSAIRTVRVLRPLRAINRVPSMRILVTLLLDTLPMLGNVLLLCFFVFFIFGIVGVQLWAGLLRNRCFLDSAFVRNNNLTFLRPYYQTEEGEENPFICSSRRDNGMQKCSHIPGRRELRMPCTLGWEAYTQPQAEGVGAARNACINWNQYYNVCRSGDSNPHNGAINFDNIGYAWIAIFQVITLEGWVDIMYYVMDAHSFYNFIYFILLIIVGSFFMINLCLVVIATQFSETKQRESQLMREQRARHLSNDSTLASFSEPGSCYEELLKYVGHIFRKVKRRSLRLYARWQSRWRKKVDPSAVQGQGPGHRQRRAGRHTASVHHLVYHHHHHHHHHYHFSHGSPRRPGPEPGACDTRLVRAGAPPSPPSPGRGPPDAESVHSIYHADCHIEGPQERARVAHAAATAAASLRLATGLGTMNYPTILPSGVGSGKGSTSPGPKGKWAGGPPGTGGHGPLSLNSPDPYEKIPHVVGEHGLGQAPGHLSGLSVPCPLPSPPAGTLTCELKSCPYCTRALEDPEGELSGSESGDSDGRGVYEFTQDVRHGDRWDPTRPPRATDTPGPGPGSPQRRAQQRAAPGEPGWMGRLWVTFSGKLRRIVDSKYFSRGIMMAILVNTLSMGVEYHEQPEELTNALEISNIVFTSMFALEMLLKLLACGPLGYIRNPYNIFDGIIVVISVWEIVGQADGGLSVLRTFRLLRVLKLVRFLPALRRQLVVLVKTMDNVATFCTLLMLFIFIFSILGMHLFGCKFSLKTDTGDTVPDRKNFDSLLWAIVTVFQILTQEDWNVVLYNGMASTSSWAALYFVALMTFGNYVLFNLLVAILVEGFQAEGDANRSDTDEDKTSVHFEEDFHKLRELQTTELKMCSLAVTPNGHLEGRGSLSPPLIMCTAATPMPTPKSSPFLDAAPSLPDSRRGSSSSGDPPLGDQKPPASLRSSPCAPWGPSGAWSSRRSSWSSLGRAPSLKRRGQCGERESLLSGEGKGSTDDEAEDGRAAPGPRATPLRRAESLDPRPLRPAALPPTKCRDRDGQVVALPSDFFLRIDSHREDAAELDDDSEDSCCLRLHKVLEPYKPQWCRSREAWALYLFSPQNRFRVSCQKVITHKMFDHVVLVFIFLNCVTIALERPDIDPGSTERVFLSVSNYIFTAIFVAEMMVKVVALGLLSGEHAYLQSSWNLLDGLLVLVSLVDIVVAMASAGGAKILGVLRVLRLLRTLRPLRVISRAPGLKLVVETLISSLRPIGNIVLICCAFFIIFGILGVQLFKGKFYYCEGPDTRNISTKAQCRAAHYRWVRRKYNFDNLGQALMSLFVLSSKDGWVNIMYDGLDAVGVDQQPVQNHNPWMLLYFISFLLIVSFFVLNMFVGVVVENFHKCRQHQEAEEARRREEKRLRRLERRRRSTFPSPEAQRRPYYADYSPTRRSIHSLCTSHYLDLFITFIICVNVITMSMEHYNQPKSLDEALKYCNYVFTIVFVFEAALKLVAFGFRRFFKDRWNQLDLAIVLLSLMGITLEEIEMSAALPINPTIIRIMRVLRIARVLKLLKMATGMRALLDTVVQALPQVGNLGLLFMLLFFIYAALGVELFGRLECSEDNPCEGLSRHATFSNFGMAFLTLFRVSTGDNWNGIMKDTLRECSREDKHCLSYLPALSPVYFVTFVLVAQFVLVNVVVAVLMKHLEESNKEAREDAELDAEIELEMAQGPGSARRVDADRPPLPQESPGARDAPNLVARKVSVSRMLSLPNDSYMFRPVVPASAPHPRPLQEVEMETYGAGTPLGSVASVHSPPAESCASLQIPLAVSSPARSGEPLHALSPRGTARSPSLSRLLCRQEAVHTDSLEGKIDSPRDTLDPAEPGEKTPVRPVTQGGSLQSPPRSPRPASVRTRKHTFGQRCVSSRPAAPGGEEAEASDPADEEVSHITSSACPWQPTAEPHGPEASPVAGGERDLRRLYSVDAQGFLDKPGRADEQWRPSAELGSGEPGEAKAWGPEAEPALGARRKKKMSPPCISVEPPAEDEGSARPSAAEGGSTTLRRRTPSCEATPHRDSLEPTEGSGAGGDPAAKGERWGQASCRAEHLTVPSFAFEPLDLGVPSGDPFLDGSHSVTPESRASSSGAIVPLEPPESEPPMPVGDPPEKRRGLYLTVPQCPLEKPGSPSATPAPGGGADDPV
Sequence of Paired box protein Pax-8 (Q06710 whole entry): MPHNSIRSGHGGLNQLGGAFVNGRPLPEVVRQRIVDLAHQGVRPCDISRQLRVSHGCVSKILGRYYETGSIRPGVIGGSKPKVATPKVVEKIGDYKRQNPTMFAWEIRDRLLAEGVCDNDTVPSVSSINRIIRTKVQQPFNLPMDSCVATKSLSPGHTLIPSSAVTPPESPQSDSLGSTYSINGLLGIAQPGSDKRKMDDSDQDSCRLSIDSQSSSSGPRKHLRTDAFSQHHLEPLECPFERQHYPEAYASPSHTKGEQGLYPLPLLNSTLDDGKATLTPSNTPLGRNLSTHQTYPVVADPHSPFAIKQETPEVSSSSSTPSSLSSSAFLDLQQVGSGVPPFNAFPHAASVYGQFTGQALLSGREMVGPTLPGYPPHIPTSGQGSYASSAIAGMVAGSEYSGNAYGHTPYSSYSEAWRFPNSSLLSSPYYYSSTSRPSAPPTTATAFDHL

Structure (SMILES): CN1C=CC2=C(C#N)C(N)C(C#N)(C#N)[C@H](c3ccccc3)[C@H]2C1 (some centres undefined)
- IC50 [4]: > 66 µM (inactive)
- IC50 [5]: 58.9 µM (inactive)
- EC50 (Kallikrein-7): > 69.5 µM (inactive)

Structure (SMILES): CSCc1nnc(NC(=O)c2ccc(S(=O)(=O)N(CC(C)C)CC(C)C)cc2)o1
- EC50 [6]: 1.01 µM (active)
- EC50 (Streptococcus): 2.51 µM (active)
- EC50 [7]: 3.07 µM (active)

Structure (SMILES): CCC(CC)CC1CN2CCc3cc(OC)c(OC)cc3C2CC1(O)CC (centres undefined)
- AC50 [8]: 2 µM (active)
- AC50 [9]: > 70 µM (inactive)
- AC50 [10]: 3.89 µM (active)
- EC50 (Kallikrein-7): 8.32 µM (active)

Structure (SMILES): O=C(Nc1ccccc1)N1CCCCN2[C@H](C1)[C@@H](c1ccc(C#Cc3ccccc3)cc1)[C@@H]2CO
- AC50 (Paired box protein Pax-8): 10.5 µM (active)
- AC50 [11]: 26 µM (active)
- AC50 [12]: 26 µM (active)

Structure (SMILES): CCCCCCN(C(=O)CCCCCN1C(=O)NC(c2ccc(-c3ccccc3)cc2)C(C(=O)OCc2ccccc2)=C1C)C(C(=O)NCCCC)c1cccc(C(=O)OC)c1 (centres undefined)
- AC50 (Cytochrome P450 3A4): 2.51 µM (inconclusive)

Structure (SMILES): C[C@@H]1O[C@@H](O[C@@H]2[C@@H](O)[C@H](OCCc3ccc(O)c(O)c3)O[C@H](CO[C@@H]3O[C@H](CO)[C@@H](O)[C@H](O)[C@H]3O)[C@H]2OC(=O)/C=C/c2ccc(O)c(O)c2)[C@H](O)[C@H](O)[C@H]1O
- AC50 (Cytochrome P450 3A4): 7.94 µM (inconclusive)

Structure (SMILES): C=CCCCCCCCCCCC/C=C/C(O)COC(C)=O (centres undefined) [DEHYDROAVOCATIN-1-ACETATE]
- AC50 (Cytochrome P450 3A4): 39.8 µM (inconclusive)

Now from value to compound:

- EC50 [1]: 0.299 µM (active)
Structure (SMILES): Cc1oc(-c2ccccc2Cl)nc1C[S+]([O-])CC(=O)NCCCN1CC(C)CC(C)C1 (centres undefined)

- EC50 [1]: 0.0107 µM (active)
Structure (SMILES): CCCN(CCC)CCCNC(=O)c1ccc2c(Cl)c3c(nc2c1)CCC3

- EC50 (Kallikrein-7): 8.33 µM (active)
Structure (SMILES): CCOC(=O)C1CCN(c2[nH]cnc3c4c(OC)cccc4nc2-3)CC1

- EC50 [1]: 1.06 µM (active)
Structure (SMILES): CCOC(=O)c1oc2ccc(OC)cc2c1NC(=O)CN1CCN(C)CC1

- EC50 [1]: 4.73 µM (active)
- IC50 [2]: > 47.1 µM (inactive)
- EC50 [3]: > 53 µM (inactive)
Structure (SMILES): Cc1onc(-c2c(F)cccc2Cl)c1C(=O)N1CCN(c2ncc(Br)cn2)CC1

- EC50 (Kallikrein-7): > 69.5 µM (inactive)
Structure (SMILES): CC1=C(C#N)C(c2cccnc2)C2=C(O)CC(C)(C)CC2=N1 (centres undefined)
